# Target: T1, bovine cerebral TPK1 (Bos taurus, UniProt A0A3Q1MT31)
# T1 construct: from tissue; host or cells: bovine brain (cerebrum)
# Test: Inhibitory activity against P-GS1 phosphorylation by bovine cerebral TPK1
# Assay type: biochemical
# Settings: 41.7 μM [γ-32P] ATP, 25° C., 2 hours
# Method: Experiment 1: Inhibitory Activity of the Medicament of the Present Invention Against P-GS1 Phosphorylation by Bovine Cerebral TPK1
# A mixture containing 100 mM MES-sodium hydroxide (pH 6.5), 1 mM magnesium acetate, 0.5 mM EGTA, 5 mM β-mercaptoethanol, 0.02% Tween 20, 10% glycerol, 12 μg/ml P-GS1, 41.7 μM [γ^−32P] ATP (68 kBq/ml), bovine cerebral TPK1 and a compound shown in Table (a final mixture contained 1.7% DMSO deriving from a solution of a test compound prepared in the presence of 10% DMSO) was used as a reaction system. The phosphorylation was started by adding ATP, and the reaction was conducted at 25° C. for 2 hours, and then stopped by adding 21% perchloric acid on ice cooling. The reaction mixture was centrifuged at 12,000 rpm for 5 minutes and adsorbed on P81 paper (Whatmann), and then the paper was washed four times with 75 mM phosphoric acid, three times with water and once with acetone. The paper was dried, and the residual radioactivity was measured using a liquid scintillation counter.
# T1 sequence (A0A3Q1MT31 1-419): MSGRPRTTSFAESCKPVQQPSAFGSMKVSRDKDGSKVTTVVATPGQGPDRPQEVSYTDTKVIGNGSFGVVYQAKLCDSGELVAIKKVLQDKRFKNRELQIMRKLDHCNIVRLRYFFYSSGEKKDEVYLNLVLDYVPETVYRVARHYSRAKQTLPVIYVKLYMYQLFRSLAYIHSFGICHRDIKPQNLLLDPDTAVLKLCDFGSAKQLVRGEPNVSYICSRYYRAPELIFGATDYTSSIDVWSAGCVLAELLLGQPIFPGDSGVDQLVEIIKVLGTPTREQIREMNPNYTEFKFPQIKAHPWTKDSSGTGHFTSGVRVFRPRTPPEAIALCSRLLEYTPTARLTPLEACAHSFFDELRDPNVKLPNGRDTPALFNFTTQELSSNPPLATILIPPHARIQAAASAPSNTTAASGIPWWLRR
row,Compound,IC50 [nM]
1,Cn1c(N2CCO[C@@H](c3cc4ccccc4o3)C2)nc(-c2ccncc2F)cc1=O [compound 4],7.9
2,Cn1c(N2CCO[C@@H](c3c(F)cccc3Cl)C2)nc(-c2ccncc2F)cc1=O [compound 5],1.4
3,"Cn1c(N2CCN[C@@H](c3ccc(N4CCCCC4)cc3)C2)nc(-c2ccncc2F)cc1=O [compound 14, 6-(3-Fluoro-pyridin-4-yl)-3-methyl-2-((3S)-3-(4-piperidin-1-yl-phenyl)-piperazin-1-yl)-3H-pyrimidin-4-one]",3.7
4,Cn1c(N2CCO[C@@H](c3ccc(N4CCC(N5CCCC5)CC4)cc3)C2)nc(-c2ccncc2F)cc1=O [compound 17],1.7
5,Cn1c(N2CCN[C@@H](c3ccc(N4CCN(c5ccccc5)CC4)cc3)C2)nc(-c2ccncc2F)cc1=O [compound 22],0.53
6,COc1ccc(-c2ccc([C@H]3CN(c4nc(-c5ccncc5F)cc(=O)n4C)CCN3)cc2)cc1 [compound 41],0.73
7,Cn1c(N2CCC(c3ccc(N4CCCC4)cc3)CC2)nc(-c2ccncc2F)cc1=O [compound 56],6.4
8,CC(C)Oc1ccc(-c2ccc([C@H]3CN(c4nc(-c5ccncc5F)cc(=O)n4C)CCN3)cc2)cc1 [compound 92],1.2
9,Cn1c(N2CCC(Nc3cccc(C(F)(F)F)c3)CC2)nc(-c2ccncc2F)cc1=O [compound 105],8.2
10,"Cn1c(N2CCO[C@@H](c3ccc(N)cc3)C2)nc(-c2ccncc2F)cc1=O [compound 158, 2-((2S)-2-(4-Aminophenyl)morpholin-4-yl)-6-(3-fluoropyridin-4-yl)-3-methyl-3H-pyrimidin-4-one]",2.9
11,CNc1cc(-c2cc(=O)n(C)c(N3CCO[C@@H](c4cc(C#N)ccc4OC)C3)n2)ccn1 [compound 196],13
12,Cn1c(N2CCO[C@@H](c3ccc(NC(=O)C4CCCCC4)cc3)C2)nc(-c2ccncc2F)cc1=O [compound 209],2.2
13,Cc1cc(C2CN(c3nc(-c4ccncc4F)cc(=O)n3C)CCO2)ccc1Br (stereo not drawn) [compound 210],0.51
14,CN(c1ccc([C@H]2CN(c3nc(-c4ccncc4F)cc(=O)n3C)CCO2)cc1)c1ccccn1 [compound 212],5.4
15,Cn1c(N2CCO[C@@H](c3ccc(NC(=O)C(C)(C)C)cc3)C2)nc(-c2ccncc2F)cc1=O [compound 215],4.2
16,"Cn1c(N2CCO[C@@H](c3ccc(N[C@@H]4CCOC4)cc3)C2)nc(-c2ccncc2F)cc1=O [compound 220, 2-((2S)-2-(4-(N-((3R)-Tetrahydrofuran-3-yl)amino)phenyl)morpholin-4-yl)-3-methyl-6-(3-fluoropyridin-4-yl)-3H-pyrimidin-4-one]",2.7
17,"CN(c1ccc([C@H]2CN(c3nc(-c4ccncc4F)cc(=O)n3C)CCO2)cc1)[C@@H]1CCOC1 [compound 221, 6-(3-Fluoropyridin-4-yl)-2-((2S)-2-(4-(N-methyl-N-((3R)-tetrahydrofuran-3yl)amino)phenyl)morpholin-4-yl)-3-methyl-3H-pyrimidin-4-one]",3.9
18,Cn1c(N2CCO[C@@H](c3ccc(OCCN4CCOCC4)cc3)C2)nc(-c2ccncc2F)cc1=O [compound 224],1.1
19,"CC(=O)N1CCC(Oc2ccc([C@H]3CN(c4nc(-c5ccncc5F)cc(=O)n4C)CCO3)cc2)CC1 [compound 238, 2-((2S)-2-(4-(1-Acetylpiperidin-4-yloxy)phenyl)morpholin-4-yl)-6-(3-fluoropyridin-4-yl)-3-methyl-pyrimidin-4-one]",6.4
20,COc1cc(Cl)ccc1[C@H]1CN(c2nc(-c3ccncc3Cl)cc(=O)n2C)CCO1 [compound 247],13
21,"CN(C)CC(=O)Nc1ccc([C@H]2CN(c3nc(-c4ccncc4F)cc(=O)n3C)CCO2)cc1 [compound 288, N^2,N^2-Dimethyl-N^1-(4-((2S)-4-(3-methyl-4-oxo-3,4-dihydro-6-(3-fluoropyridin-4-yl)pyrimidin-2-yl)morpholin-2-yl)phenyl)glycinamide]",0.27
22,"COC(=O)Nc1ccc([C@H]2CN(c3nc(-c4ccncc4F)cc(=O)n3C)CCO2)cc1 [compound 295, Methyl (4-((2S)-4-(6-(3-fluoropyridin-4-yl)-3-methyl-4-oxo-3H-pyrimidin-2-yl)morpholin-2-yl)phenyl)carbamate]",1.2
23,"CN(C)C(=O)Nc1ccc([C@H]2CN(c3nc(-c4ccncc4F)cc(=O)n3C)CCO2)cc1 [compound 298, N′-(4-((2S)-4-(6-(3-Fluoropyridin-4-yl)-3-methyl-4-oxo-3H-pyrimidin-2-yl)morpholin-2-yl)phenyl)-N,N-dimethylurea]",11
24,"Cn1c(N2CCC[C@H](c3ccc(Br)cc3)C2)nc(-c2ccncc2F)cc1=O [compound 303, 2-((3R)-3-(4-Bromophenyl)piperidin-1-yl)-6-(3-fluoropyridin-4-yl)-3-methyl-3H-pyrimidine-4-one]",6.2
25,Cn1c(N2CCOC(c3ccc4c(c3)CCC(=O)N4)C2)nc(-c2ccncc2F)cc1=O (stereo not drawn) [compound 305],1.2
26,Cn1c(N2CCO[C@@H](c3ccc(C(=O)N4CCOCC4)cc3)C2)nc(-c2ccncc2F)cc1=O [compound 310],7.4
27,COc1ccc(NC(C)=O)cc1[C@H]1CN(c2nc(-c3ccncc3F)cc(=O)n2C)CCO1 [compound 313],0.48
28,CC(=O)Nc1cccc([C@H]2CN(c3nc(-c4ccncc4F)cc(=O)n3C)CCO2)c1 [compound 314],4.1
29,"Cn1c(N2CCN[C@@H](c3ccc(-c4ncon4)cc3)C2)nc(-c2ccncc2F)cc1=O [compound 322, 6-(3-Fluoropyridin-4-yl)-3-methyl-2-((3S)-3-(4-([1,2,4]oxadiazol-3-yl)phenyl)piperazin-1-yl)-3H-pyrimidin-4-one]",4.8
30,"Cc1nc(-c2ccc([C@H]3CN(c4nc(-c5ccncc5F)cc(=O)n4C)CCN3)cc2)no1 [compound 334, 6-(3-Fluoropyridin-4-yl)-3-methyl-2-((3S)-3-(4-(5-methyl-[1,2,4]oxadiazol-3-yl)phenyl)piperazin-1-yl)-3H-pyrimidin-4-one]",2.9

# Source: patent US8129377B2, “6-(pyridinyl)-4-pyrimidone derivates as tau protein kinase 1 inhibitors” (Mitsubishi Tanabe Pharma Corporation, priority 2004, dated 2012)
